Source: US7320996B2, “Indolinone protein kinase inhibitors and cyclooxygenase inhibitors for use in combination therapy for the treatment of cancer” (Sugen, Inc, priority 2001, dated 2008)
Several values for one entry are separate records, joined by “and”; a condition that tells them apart may be missing. Equal values may be shown once. Read-outs that look alike come from different tables or passages of the source.

Tests used:
c-kit = molecular target: T1, c-kit (Homo sapiens, UniProt P10721); test: SCF-stimulated c-kit phosphorylation in AML blasts of patients; type: cell-based; conditions: AML blasts from peripheral blood of patients
T1 construct: was determined using MO7E cells that express this receptor; endogenous in cells; host or cells: MO7E
T1 sequence (P10721 26-976): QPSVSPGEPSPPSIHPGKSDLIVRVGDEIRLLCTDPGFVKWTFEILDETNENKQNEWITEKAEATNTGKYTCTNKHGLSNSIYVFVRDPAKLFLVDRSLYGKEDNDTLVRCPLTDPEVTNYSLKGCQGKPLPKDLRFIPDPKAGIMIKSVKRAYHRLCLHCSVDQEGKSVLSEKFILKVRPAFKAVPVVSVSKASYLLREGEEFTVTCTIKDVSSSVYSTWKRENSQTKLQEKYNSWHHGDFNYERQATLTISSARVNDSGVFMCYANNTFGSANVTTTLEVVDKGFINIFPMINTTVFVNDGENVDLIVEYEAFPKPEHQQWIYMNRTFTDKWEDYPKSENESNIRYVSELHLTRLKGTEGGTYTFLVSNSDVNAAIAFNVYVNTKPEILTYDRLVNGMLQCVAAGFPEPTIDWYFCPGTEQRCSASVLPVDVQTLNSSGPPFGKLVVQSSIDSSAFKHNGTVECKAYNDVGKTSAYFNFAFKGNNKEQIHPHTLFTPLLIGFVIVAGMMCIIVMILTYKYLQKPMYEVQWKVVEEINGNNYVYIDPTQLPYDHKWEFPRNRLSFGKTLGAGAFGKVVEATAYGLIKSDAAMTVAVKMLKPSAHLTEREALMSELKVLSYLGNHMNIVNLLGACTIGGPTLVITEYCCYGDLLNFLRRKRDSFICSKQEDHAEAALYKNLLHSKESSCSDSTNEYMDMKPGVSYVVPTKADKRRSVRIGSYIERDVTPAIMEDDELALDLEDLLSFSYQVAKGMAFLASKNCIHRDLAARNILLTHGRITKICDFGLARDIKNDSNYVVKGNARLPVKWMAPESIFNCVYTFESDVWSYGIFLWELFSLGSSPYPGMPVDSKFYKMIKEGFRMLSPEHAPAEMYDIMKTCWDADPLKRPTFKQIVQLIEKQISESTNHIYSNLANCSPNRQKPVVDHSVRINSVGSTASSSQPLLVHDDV

B16-F1 cells = test: B16-F1 mouse melanoma lung colonization model; type: in vivo, athymic mice; conditions: 80 mg/kg/day oral for 24 days; P <0.001
Source text: In addition to supporting the sustained growth of solid primary tumors, angiogenesis is also an essential component supporting the development of disseminated disease due to metastasis from the primary tumor. […] In this model, B16-F1 cells inoculated intravenously via the tail vein of athymic mice colonize the lungs and form tumors. […] .
Briefly, the results shown in Table 8 were obtained using athymic mice that had been inoculated with B16-F1 tumor cells (5×10^5 cells/mouse) via the tail vein. […] . At the end of the treatment period, the mice were sacrificed and their lungs removed and weighed. […] .

Colo205 tumors = test: Colo205 subcutaneous xenograft
HUVECs = test: VEGF-mediated HUVEC survival (PARP cleavage); type: cell-based, human; conditions: PARP cleavage as readout for apoptosis
Source text: In these experiments, cleavage of the caspase 3 substrate poly-ADP-ribosyl polymerase (PARP) was used as a readout for apoptosis.

SF763T tumors = test: SF763T subcutaneous xenograft; type: in vivo, athymic mice
NCI-H460 tumors = test: NCI-H460 subcutaneous xenograft
NCI-H460 cells = test: cells; conditions: Homo sapiens
SF767T cells = test: cells; conditions: Homo sapiens
A549 cells = test: cells; conditions: Homo sapiens
HT29 cells = test: cells; conditions: Homo sapiens, HT-29

## CCN(CC)CCNC(=O)c1c(C)[nH]c(/C=C2\C(=O)Nc3ccc(F)cc32)c1C [Compound 80]
c-kit
  SCF-stimulated c-kit phosphorylation: inhibited
B16-F1 cells
  % Inhibition (lung weight): 50%
Colo205 tumors; 40 mg/kg daily oral, tumors 400 mm^3 at start, P 0.028
  % Inhibition: 84%
Colo205 tumors; 40 mg/kg twice weekly oral, tumors 400 mm^3 at start, NS
  % Inhibition: 36%
Colo205 tumors; 80 mg/kg daily oral, tumors 400 mm^3 at start, P 0.039
  % Inhibition: 91%
Colo205 tumors; 80 mg/kg once weekly oral, tumors 400 mm^3 at start, NS
  % Inhibition: 0%
Colo205 tumors; 80 mg/kg twice weekly oral, tumors 400 mm^3 at start, NS
  % Inhibition: 19%
Colo205 tumors; 80 mg/kg/day oral
  tumor response to treatment: regressed
Colo205 tumors; 160 mg/kg once weekly oral, tumors 400 mm^3 at start, NS
  % Inhibition: 17%
Colo205 tumors; 160 mg/kg twice weekly oral, tumors 400 mm^3 at start, P 0.085
  % Inhibition: 52%
Colo205 tumors; initial tumor volume 370 mm^3, 80 mg/kg once daily oral, day 54, P 0.028
  % Inhibition: 77 (54) %
HUVECs
  effect on VEGF-mediated HUVEC survival: inhibited VEGF-mediated HUVEC survival in a dose-dependent manner
A431 tumors; 80 mg/kg/day oral
  tumor response to treatment: regressed
A431 tumors; 160 mg/kg/day, preliminary experiments
  efficacy against established A431 tumors versus 80 mg/kg/day dose: not more efficacious
A431 tumors; initial 100 mm^3, 80 mg/kg/day for 21 days
  complete regression of the tumors: six of the eight animals
A431 tumors; initial tumor volume 100 mm^3, 10 mg/kg/day oral, day 40, P 0.059
  % Inhibition of tumor growth: 61 (40) %
A431 tumors; initial tumor volume 100 mm^3, 40 mg/kg/day oral, day 40, P 0.015
  % Inhibition of tumor growth: 75 (40) %
A431 tumors; initial tumor volume 100 mm^3, 80 mg/kg/day oral, day 40, P 0.002
  % Inhibition of tumor growth: 93 (40) %
A431 tumors; initial tumor volume 400 mm^3, 20 mg/kg/day oral, day 36, P 0.130
  % Inhibition of tumor growth: 51 (36) %
A431 tumors; initial tumor volume 400 mm^3, 40 mg/kg/day oral, day 36, P 0.003
  % Inhibition of tumor growth: 74% and 74 (36) %
A431 tumors; initial tumor volume 400 mm^3, 80 mg/kg/day oral, day 36, P 0.001
  % Inhibition of tumor growth: 84% and 84 (36) %
A431 tumors; the six animals with complete regression
  tumor regrowth after end of treatment: did not regrow during a 110-day observation period
A431 tumors; two animals with tumors regrown to 2000-3000 mm^3
  response of regrown tumors to a second round of treatment: regressed
SF763T tumors; 80 mg/kg/day oral
  tumor response to treatment: arrested or greatly slowed
SF763T tumors; initial tumor volume 550 mm^3, 80 mg/kg once daily oral, day 30, P 0.001
  % Inhibition: 53 (30) %
SF763T tumors; oral administration
  PDGFRβ tyrosine phosphorylation in established tumors: strongly inhibited
  levels of phosphorylated (activated) phospholipase C gamma (PLC-γ) in tumors: reduced
NCI-H460 tumors; 80 mg/kg/day oral
  tumor response to treatment: arrested or greatly slowed
NCI-H460 tumors; initial tumor volume 300 mm^3, 80 mg/kg once daily oral, day 54, P 0.003
  % Inhibition: 61 (54) %
NCI-H460 cells
  IC50: 8.9 µM
SF767T cells
  IC50: 7.9 µM
A549 cells
  IC50: 9.5 µM
HT29 cells
  IC50: 10 µM
